The source made the active and inactive calls. The rule behind the calls is not given here.
Test system: rodent carcinogenicity bioassays, tumor incidence
Test: CCRIS carcinogenicity studies
Conditions: Dose: 0, Dose: 0
Outline: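 NCI-built, expert-reviewed records of carcinogenicity and related test outcomes (mutagenicity, tumor promotion/inhibition) compiled from published and report sources, historical span 1985-2011, not updated.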

For `C=CC`, the carcinogen call (Species: MOUSE, Strain/Sex: B6C3F1/FEMALE, Route: INHALATION, 5000, 10000 PPM IN AIR 6H/D 5D/WK FOR 103 WK (STUDY DURATION: 104 WK), 5000, 10000 PPM IN AIR 6H/D 5D/WK FOR 103 WK (STUDY DURATION: 104 WK)) was “inactive; negative”, the carcinogen call (Species: MOUSE, Strain/Sex: B6C3F1/MALE, Route: INHALATION, 5000, 10000 PPM IN AIR 6H/D 5D/WK FOR 103 WK (STUDY DURATION: 104 WK), 5000, 10000 PPM IN AIR 6H/D 5D/WK FOR 103 WK (STUDY DURATION: 104 WK)) was “inactive; negative” and the carcinogen call (Species: MOUSE, Strain/Sex: SWISS/FEMALE, Route: INHALATION, 200, 1000, 5000 PPM 7 HR/D, 5D/WK FOR 78 WK (STUDY DURATION: LIFESPAN), 200, 1000, 5000 PPM 7 HR/D, 5D/WK FOR 78 WK (STUDY DURATION: LIFESPAN)) was “inactive; negative”. The carcinogen call (Species: MOUSE, Strain/Sex: SWISS/MALE, Route: INHALATION, 200, 1000, 5000 PPM 7 HR/D, 5D/WK FOR 78 WK (STUDY DURATION: LIFESPAN), 200, 1000, 5000 PPM 7 HR/D, 5D/WK FOR 78 WK (STUDY DURATION: LIFESPAN)) was “inactive; negative”, the carcinogen call (Species: RAT, Strain/Sex: F344/FEMALE, Route: INHALATION, 5000, 10000 PPM IN AIR 6H/D 5D/WK FOR 103 WK (STUDY DURATION: 104 WK), 5000, 10000 PPM IN AIR 6H/D 5D/WK FOR 103 WK (STUDY DURATION: 104 WK)) was “inactive; negative” and the carcinogen call (Species: RAT, Strain/Sex: F344/MALE, Route: INHALATION, 5000, 10000 PPM IN AIR 6H/D 5D/WK FOR 103 WK (STUDY DURATION: 104 WK), 5000, 10000 PPM IN AIR 6H/D 5D/WK FOR 103 WK (STUDY DURATION: 104 WK)) was “inactive; negative”. For the same compound, the carcinogen call (Species: RAT, Strain/Sex: SPRAGUE-DAWLEY/FEMALE, Route: INHALATION, 200, 1000, 5000 PPM 7 HR/D, 5D/WK FOR 104 WK (STUDY DURATION: LIFESPAN), 200, 1000, 5000 PPM 7 HR/D, 5D/WK FOR 104 WK (STUDY DURATION: LIFESPAN)) was “inactive; negative”, the carcinogen call (Species: RAT, Strain/Sex: SPRAGUE-DAWLEY/FEMALE, Route: INHALATION, 200, 1000, 5000 PPM IN AIR 7 HR/D 5 D/WK FOR 104 WK (STUDY DURATION: LIFETIME), 200, 1000, 5000 PPM IN AIR 7 HR/D 5 D/WK FOR 104 WK (STUDY DURATION: LIFETIME), Tumor Site: Type of Lesion: [BRAIN WAS ONLY SITE EVALUATED]) was “inactive; negative” and the carcinogen call (Species: RAT, Strain/Sex: SPRAGUE-DAWLEY/MALE, Route: INHALATION, 200, 1000, 5000 PPM 7 HR/D, 5D/WK FOR 104 WK (STUDY DURATION: LIFESPAN), 200, 1000, 5000 PPM 7 HR/D, 5D/WK FOR 104 WK (STUDY DURATION: LIFESPAN)) was “inactive; negative”. The carcinogen call (Species: RAT, Strain/Sex: SPRAGUE-DAWLEY/MALE, Route: INHALATION, 200, 1000, 5000 PPM IN AIR 7 HR/D 5 D/WK FOR 104 WK (STUDY DURATION: LIFETIME), 200, 1000, 5000 PPM IN AIR 7 HR/D 5 D/WK FOR 104 WK (STUDY DURATION: LIFETIME), Tumor Site: Type of Lesion: [BRAIN WAS ONLY SITE EVALUATED]) was “inactive; negative”.
With `c1ccc2c(c1)ccc1c3ccccc3sc21` the carcinogen call (Species: RAT, Strain/Sex: OSBORNE-MENDEL/FEMALE, Route: INTRAPULMONARY IMPLANT, 1, 3, 6 MG IN BEESWAX AND TRIOCTANOIN IMPLANTED IN LUNG (STUDY DURATION: 141 WK), 1, 3, 6 MG IN BEESWAX AND TRIOCTANOIN IMPLANTED IN LUNG (STUDY DURATION: 141 WK), Tumor Site: Type of Lesion: LUNG: CARCINOMA) was “active; positive”.
In the case of `Cc1c(C)c2c3c(ccc2c2ccccc12)[C@@H](O)[C@H](O)[C@@H]1O[C@H]31`, the carcinogen call (Species: MOUSE, Strain/Sex: ICR/FEMALE, Route: INTRAPERITONEAL, 8 NMOL IN 5 µL DMSO TO PUPS ON D 1/OF LIFE THEN 16 NMOL IN 10 µL ON D 8 AND 3 NMOL IN 20 µL D 15 (STUDY DURATION: 35, Tumor Site: Type of Lesion: LUNG: TUMOR) is reported as “active; positive” and the carcinogen call (Species: MOUSE, Strain/Sex: ICR/MALE, Route: INTRAPERITONEAL, 8 NMOL IN 5 µL DMSO TO PUPS ON D 1/OF LIFE THEN 16 NMOL IN 10 µL ON D 8 AND 3 NMOL IN 20 µL ON D 15 (STUDY DURATION:, Tumor Site: Type of Lesion: LUNG: TUMOR, LIVER: TUMOR) is reported as “active; positive”.
With `c1ccc2c(c1)ccc1cc3ccc4c(c3cc12)CCCC4` the carcinogen call (Species: MOUSE, Strain/Sex: SWISS/FEMALE, Route: DERMAL, 37 UG IN ACETONE (0.2%) 2/WK FOR 70 WK FOR A TOTAL DOSE OF 0, 5.2 MG (STUDY DURATION: 100 WK), 37 UG IN ACETONE (0.2%) 2/WK FOR 70 WK FOR A TOTAL DOSE OF 0, 5.2 MG (STUDY DURATION: 100 WK), Tumor Site: Type of Lesion: SKIN: CARCINOMA, SKIN: PAPILLOMA) was “active; positive”.
With `Oc1ccccc1` the carcinogen call (Species: MOUSE, Strain/Sex: B6C3F1/FEMALE, Route: ORAL, 2500, 5000 PPM IN DIET, 2500, 5000 PPM IN DIET) was “inactive; negative”, the carcinogen call (Species: MOUSE, Strain/Sex: B6C3F1/MALE, Route: ORAL, 2500, 5000 PPM IN DIET, 2500, 5000 PPM IN DIET) was “inactive; negative” and the carcinogen call (Species: RAT, Strain/Sex: F344/FEMALE, Route: ORAL, 2500, 5000 PPM IN DIET, 2500, 5000 PPM IN DIET) was “inactive; negative”. The carcinogen call (Species: RAT, Strain/Sex: F344/MALE, Route: ORAL, 2500, 5000 PPM IN DIET, 2500, 5000 PPM IN DIET) was “inactive; negative”.
With `NC(=S)NNC(N)=S` the carcinogen call (Species: MOUSE, Strain/Sex: B6C3F1/FEMALE, Route: ORAL, 1.0, 2.0% OF DIET FOR 78 WK (STUDY DURATION: 94 WK), 1.0, 2.0% OF DIET FOR 78 WK (STUDY DURATION: 94 WK), Tumor Site: Type of Lesion: LIVER: HEPATOCELLULAR CARCINOMA) was “equivocal”, the carcinogen call (Species: MOUSE, Strain/Sex: B6C3F1/MALE, Route: ORAL, 1.0, 2.0% OF DIET FOR 78 WK (STUDY DURATION: 94 WK), 1.0, 2.0% OF DIET FOR 78 WK (STUDY DURATION: 94 WK)) was “inactive; negative” and the carcinogen call (Species: RAT, Strain/Sex: F344/FEMALE, Route: ORAL, 0.6, 1.2% OF DIET FOR 78 WK (STUDY DURATION: 109 WK), 0.6, 1.2% OF DIET FOR 78 WK (STUDY DURATION: 109 WK)) was “inactive; negative”. The carcinogen call (Species: RAT, Strain/Sex: F344/MALE, Route: ORAL, 0.6, 1.2% OF DIET OR 78 WK (STUDY DURATION: 109 WK), 0.6, 1.2% OF DIET OR 78 WK (STUDY DURATION: 109 WK)) was “inactive; negative”.
`Nc1cc(Cl)c(N)c(Cl)c1` was tested, and the carcinogen call (Species: MOUSE, Strain/Sex: B6C3F1/FEMALE, Route: ORAL, 1000, 3000 PPM IN DIET, 1000, 3000 PPM IN DIET, Tumor Site: Type of Lesion: LIVER: HEPATOCELLULAR ADENOMA OR CARCINOMA) was “active; positive”, the carcinogen call (Species: MOUSE, Strain/Sex: B6C3F1/MALE, Route: ORAL, 1000, 3000 PPM IN DIET, 1000, 3000 PPM IN DIET, Tumor Site: Type of Lesion: LIVER: HEPATOCELLULAR ADENOMA OR CARCINOMA) was “active; positive” and the carcinogen call (Species: RAT, Strain/Sex: F344/FEMALE, Route: ORAL, 2000, 6000 PPM IN DIET, 2000, 6000 PPM IN DIET) was “inactive; negative”. For the same compound, the carcinogen call (Species: RAT, Strain/Sex: F344/MALE, Route: ORAL, 1000, 2000 PPM IN DIET, 1000, 2000 PPM IN DIET) was “inactive; negative”.
